Results on eight compounds are retold here after paper PMC8535490, “Biotransformation of Flavonoids Improves Antimicrobial and Anti-Breast Cancer Activities In Vitro” (Foods, 2021).

≈ marks a conversion by molar mass, not a printed value. Read-outs that look alike come from different tables or passages of the source. A value given as a limit tells only on which side of the number the result lay.

One data set has as its system E. coli ATCC25922. Nature of the data set: Antimicrobial activity assay (broth culture in 96-well plate, CCK8 staining, MIC/MBC). The data set is classed as cell-based, Escherichia coli. Particulars: for Growth inhibition / MBC / MIC: E. coli ATCC25922; for MBC / MIC: Escherichia coli, tested at 15–400 µM. The procedure:
(§1) Antimicrobial biological activities of the tested compounds were evaluated as Zhong et al., with some modifications. Gram-positive and -negative bacteria and fungi (S. aureus ATCC6538, E. coli ATCC25922, and C. albicans SC5314) were selected for evaluation in the present study. S. aureus ATCC6538 and E. coli ATCC25922 were cultured with Luria-Bertani medium, while for C. albicans SC5314, potato dextrose broth medium was used for 24 h at 37 °C (bacterial suspension in 1 × 10^6 CFU/mL). […] Each strain was, respectively, transferred into a 96-well plate at 100 µL/well (90 µL bacterial suspension and 10 µL sample solution) after adding different concentrations of samples, followed by incubation for 12–16 h. The optical density at 650 nm (OD650) of C. albicans SC5314 was measured after TTC staining, while S. aureus ATCC6538 and E. coli ATCC25922 were stained for CCK8 before measurement.

The subject of another data set is S. aureus ATCC6538. The data set is described as above. The data set is classed as cell-based, Staphylococcus aureus. The note with it: for Growth inhibition: S. aureus ATCC 6538; for MBC / MIC: S. aureus ATCC6538, tested at 15–400 µM. How it is done: as §1
Data set [1] relates to MCF-7 human breast cancer cells. Briefly: Antiproliferative activity, methylene blue assay. The data set is classed as cell-based. The note with it: MCF-7 cells; for IC50: 72 h, mean ± SD, n = 3; for Increase in antiproliferation potency compared to unmethylated substrate: ratio of IC50 values. How it is done:
(§2) Analysis of the antiproliferative activity of the test compounds was performed according to Zhu et al., with some modifications. MCF-7 human breast cancer cells were provided by the Cell Resource Center of the Chinese Academy of Sciences (Shanghai, China). Cell proliferation and cytotoxicity of anticancer activity were assessed using the methylene blue assay. For cell proliferation and cytotoxicity, MCF-7 cells were culture in a 96-well plate at 1.5 × 10^5 cells/well and at 3 × 10^5 cells/well, respectively. Various concentrations (75–400 µM) of the test samples were added to a growth medium containing MCF-7 cells followed by cultivation for […]. Following incubation for 72 h, cell proliferation was measured with an absorbance of 570 nm using a microplate reader (Bio-Rad, Hercules, MA, USA), while cell cytotoxicity measurement was carried out 24 h after incubation.

Data set [2] shares this test system. Nature of the data set: Cytotoxicity, methylene blue assay. The format is cell-based. Particulars: at a concentration corresponding to the IC50 (hesperetin 150 μM), 24 h. The procedure: as §2
The test system of a further data set is C. albicans SC5314. Nature of the data set: Antimicrobial activity assay (broth culture in 96-well plate, TTC staining, MIC/MBC). The format is cell-based, Candida albicans. The note with it: for MBC / MIC: tested at 15–400 µM. How it is done: as §1
Setting [3] is: Candida albicans, C. albicans SC5314.
The mark [4] stands for this setting: Candida albicans, C. albicans SC5314, read-out: MBC.

A word on the IC50: it is the concentration at which inhibition is half-maximal. Higher therefore signals a need for much substance. In general, MIC refers to the least concentration at which growth counts as inhibited. A higher MIC goes with a need for much substance. On to 7-methoxy-naringenin [Compound 2a], for which, in the data set with E. coli ATCC25922, the Growth inhibition entry was “failed to inhibit the growth”. In the data set on S. aureus ATCC6538, the Growth inhibition entry is “failed to inhibit the growth”. In data set [1], half-maximal inhibition (IC50) was put at 93.6 ± 1.06 µM and the “Increase in antiproliferation potency compared to unmethylated substrate” value (“Increase in antiproliferation potency” below) is given as 1.34 fold. Besides, the “Cytotoxicity on MCF-7 cells” value in data set [2] was “highest”. The “Cytotoxicity on MCF-7 cells” value in data set [2] (listed as 7-methoxynaringenin) is reported as “Slight cytotoxicity”. Moreover, the “Increase of highest antimicrobial activity compared to naringenin” value with C. albicans SC5314 (C. albicans SC5314, highest activity) is on record as 182.12%. Further, in the data set on C. albicans SC5314 (C. albicans SC5314), the MBC was >400 >400 μM and the MIC came to 75 µM.
Regarding `O=C1C[C@@H](c2ccc(O)cc2)Oc2cc(O)ccc21` [Compound 1, liquiritigenin, reference compound], the MBC against E. coli ATCC25922, with S. aureus ATCC6538 (Staphylococcus aureus) and in the data set on C. albicans SC5314 (setting [4]) was greater than 400 µM in each case. For the same compound, the results for the MIC in the data set on E. coli ATCC25922, against S. aureus ATCC6538 (Staphylococcus aureus) and in the data set with C. albicans SC5314 (setting [3]) were 25 µM (≈ 6.41 µg/mL), 75 µM (≈ 19.2 µg/mL) and 25 µM (≈ 6.41 µg/mL), respectively. In data set [1] (Homo sapiens, MCF7), this compound showed an IC50 of 101 ± 1.83 µM. In addition, the “Cytotoxicity on MCF-7 cells” value in data set [2] was “Slight cytotoxicity”.
Take `COc1ccc2c(c1)O[C@H](c1ccc(O)cc1)CC2=O` [Compound 1a, 7-methoxy-liquiritigenin]: the “Increase of antimicrobial activity compared to liquiritigenin” value in the data set on E. coli ATCC25922 (E. coli ATCC25922, 400 μM) is on record as 54.41%; in the data set on S. aureus ATCC6538 (S. aureus ATCC6538, 250 μM), 148.77%; in the data set with C. albicans SC5314 (C. albicans SC5314, 200 μM) it was 765.64%. Besides, the “Increase of inhibitory effect compared to unmethylated counterpart” value is recorded as 0.54 fold in the data set with E. coli ATCC25922 (E. coli ATCC25922, 400 μM); 1.49 fold in the data set on S. aureus ATCC6538 (S. aureus ATCC6538, 250 μM); 7.65 fold in the data set with C. albicans SC5314 (C. albicans SC5314, 200 μM). Also, the MBC against E. coli ATCC25922, against S. aureus ATCC6538 (Staphylococcus aureus) and in the data set on C. albicans SC5314 (setting [4]) was greater than 400 µM each time. Besides, the MIC with E. coli ATCC25922 stood at 15 µM (≈ 4.05 µg/mL); with S. aureus ATCC6538, 75 µM (≈ 20.3 µg/mL); against S. aureus ATCC6538 (Staphylococcus aureus), 75 µM (≈ 20.3 µg/mL); in the data set on C. albicans SC5314 (C. albicans SC5314) it was 25 µM (≈ 6.76 µg/mL); in the data set with C. albicans SC5314 (setting [3]), 25 µM (≈ 6.76 µg/mL). Moreover, 11.2 ± 0.6 µM corresponded to half-maximal inhibition in data set [1] (Homo sapiens, MCF7) (IC50). The “Increase in antiproliferation potency” value in data set [1] turned out to be 8.99 fold. The “Cytotoxicity on MCF-7 cells” value in data set [2] was “Slight cytotoxicity”. Further, the “Increase (MIC) compared to the unmethylated substrate” value in the data set with C. albicans SC5314 (C. albicans SC5314) was 3 fold.
`O=C1C[C@@H](c2ccc(O)cc2)Oc2cc(O)cc(O)c21` [Compound 2, naringenin, reference compound]: the Growth inhibition entry in the data set on E. coli ATCC25922 and with S. aureus ATCC6538 was “failed to inhibit the growth” throughout. In addition, the IC50 in data set [1] (Homo sapiens, MCF7) came to 126 ± 2.76 µM. Also, the “Cytotoxicity on MCF-7 cells” value in data set [2] was “Slight cytotoxicity”. Besides, the lowest concentration to inhibit growth against C. albicans SC5314 (setting [3]) (MIC) was 75 µM (≈ 20.4 µg/mL). For the same compound, the MBC with C. albicans SC5314 (setting [4]) is greater than 400 µM.
On to `COc1ccc([C@@H]2CC(=O)c3c(O)cc(O)cc3O2)cc1O` [Compound 3, hesperetin, reference compound], for which the Growth inhibition entry in the data set on E. coli ATCC25922 and in the data set with S. aureus ATCC6538 was “failed to inhibit the growth” throughout. In addition, in data set [1] (Homo sapiens, MCF7), the concentration for half-maximal inhibition (IC50) was greater than 150 µM. Also, the “Cytotoxicity on MCF-7 cells” value in data set [2] is “Slight cytotoxicity”. For the same compound, the MIC against C. albicans SC5314 (setting [3]) amounted to 75 µM (≈ 22.7 µg/mL). Further, the MBC in the data set with C. albicans SC5314 (setting [4]) is greater than 400 µM.
For `COc1ccc([C@@H]2CC(=O)c3c(O)cc(O)cc3O2)cc1OC` [Compound 3a, 3’-methoxy-hesperetin], the Growth inhibition result in the data set with E. coli ATCC25922 and in the data set on S. aureus ATCC6538 was “failed to inhibit the growth” throughout. In addition, half-maximal inhibition in data set [1] (Homo sapiens, MCF7) (IC50) was put at 10.5 ± 0.45 µM. The “Increase in antiproliferation potency” value in data set [1] is reported as “more than 14.35 fold”. Moreover, the “Cytotoxicity on MCF-7 cells” value in data set [2] is given as “Slight cytotoxicity”. Further, 50 µM (≈ 15.8 µg/mL) was the least that counted as inhibitory in the data set on C. albicans SC5314 (setting [3]) (MIC). Moreover, the MBC with C. albicans SC5314 (setting [4]) is greater than 400 µM.
Turning to `COc1cc(O)c2c(c1)O[C@H](c1ccc(OC)c(O)c1)CC2=O` [Compound 3b, 7-methoxy-hesperetin], the Growth inhibition result in the data set on E. coli ATCC25922 and in the data set with S. aureus ATCC6538 was “failed to inhibit the growth” each time. For the same compound, the IC50 in data set [1] (Homo sapiens, MCF7) is 30.7 ± 0.72 µM. In addition, the “Cytotoxicity on MCF-7 cells” value in data set [2] is “lowest”; in data set [2] (listed as 7-methoxyhesperetin), “No cytotoxicity”. The MIC against C. albicans SC5314 (setting [3]) was 25 µM (≈ 7.91 µg/mL). Besides, the MBC in the data set with C. albicans SC5314 (setting [4]) was greater than 400 µM.
With `COc1cc(O)c2c(c1)O[C@H](c1ccc(OC)c(OC)c1)CC2=O` [Compound 3c, 7,3’-dimethoxy-hesperetin], the Growth inhibition entry with E. coli ATCC25922 and in the data set on S. aureus ATCC6538 was “failed to inhibit the growth” in each case. Besides, the IC50 in data set [1] (Homo sapiens, MCF7) is 31 ± 1.44 µM. The “Cytotoxicity on MCF-7 cells” value in data set [2] is given as “Slight cytotoxicity”. In the data set with C. albicans SC5314 (setting [3]), 75 µM (≈ 24.8 µg/mL) was the least that counted as inhibitory (MIC). Further, the MBC in the data set on C. albicans SC5314 (setting [4]) was greater than 400 µM.
